Reference: paper PMC11879040, “Advancing systemic toxicity risk assessment: Evaluation of a NAM-based toolbox approach” (Toxicological Sciences, 2024)
Like-named read-outs stand apart in the source and are kept apart here.

Experiments:
HepaRG cells = experiment: High-throughput transcriptomics (HTTr, TempO-Seq), HepaRG, 24 h; type: cell-based, human; settings: HepaRG; for pod_httr_bifrost PoD: HTTr BIFROST PoD; for podl_path_minbmd PoD: HTTr minimum pathway BMD(L)
Procedure: (§1) HepG2, HepaRG, and MCF7 cells were treated with each compound for 24 h across a dose range of 7 concentrations and lysed using TempO-Seq lysis buffer (BioSpyder Technologies, proprietary kit, see [Middleton et al. 2022] for method details). Sequencing was performed using TempO-Seq (BioClavis) version 2 of the human whole transcriptome panel and analyzed as described previously in Middleton et al.

[1] = tested on: Glutamate receptor ionotropic NMDA 1 non-selective, GRIN1 (r)
[2] = tested on: Sodium channel protein type 5 subunit alpha (site 2), SCN5A (r); type: binding, rat
HepG2 cells [3] = experiment: Cell stress panel (CSP), 24 h, 8 concentrations, BIFROST global PoD; type: cell-based; settings: HepG2; cell stress panel PoD
Procedure: Compounds were tested using the previously developed cell stress panel ([Hatherell et al. 2020]) and the expanded biomarker panel outlined in Middleton et al. HepG2 cells were treated with all compounds for 24 h across 8 concentrations prior to biomarker analysis. The same plate layout and number of replicates (3 biological and 2 technical) were used as previously for each assay within the panel.

[4] = target: T1, Adenosine receptor A2a, ADORA2A (h) (Homo sapiens, UniProt P29274); experiment: IPP ADORA2A binding (agonist radioligand); settings: control NECA
T1 construct: purchased Eurofins Cerep (SafetyScreen44-based IPP panel)

[5] = human
[6] = 12 healthy female, cited from earlier work
HepG2 cells [7] = experiment: High-throughput transcriptomics (HTTr, TempO-Seq), HepG2, 24 h; type: cell-based, human; settings: HepG2; for pod_httr_bifrost PoD: HTTr BIFROST PoD; for podl_path_minbmd PoD: HTTr minimum pathway BMD(L)
Procedure: as §1

[8] = tested on: Potassium Voltage-Gated Channel Kv non-selective, KCNQ1 (r); experiment: IPP KCNQ1 binding (antagonist radioligand); set-up: species or system rat
[9] = target: Voltage-dependent L-type Ca2+ channel (dihydropyridine site), CACNA1C (r) (Rattus norvegicus, UniProt P22002); type: binding
[10] = tested on: Thyroid hormone receptor alpha, THRA (h); experiment: IPP THRA coactivator recruitment (agonist); type: biochemical, human; settings: agonist, T3
mouse = settings: mouse, cited from earlier work
Tubulin (r) = experiment: IPP Tubulin binding; set-up: species or system rat
MCF7 cells = experiment: High-throughput transcriptomics (HTTr, TempO-Seq), MCF7, 24 h; type: cell-based, human; settings: MCF-7; for pod_httr_bifrost PoD: HTTr BIFROST PoD; for podl_path_minbmd PoD: HTTr minimum pathway BMD(L)
Procedure: as §1

[11] = tested on: Gamma-aminobutyric acid receptor subunit alpha-1 BZD site, GABRA1A (r); type: binding, rat
[12] = tested on: 63 targets with known safety liabilities; experiment: In vitro pharmacological profiling (IPP) panel, screening at 10 or 100 µM and dose response, minimum IC50/AC50; type: biochemical; settings: lowest AC50 across IPP panel (systemic targets); cell_type -; read-out: ipp_lowest_ac50_systemic PoD
[13] = target: T2, Estrogen receptor, ER1 (h) (Homo sapiens, UniProt P03372); experiment: IPP ER1 coactivator recruitment (antagonist); type: biochemical; settings: 100 uM, estriol, * denotes assay interference (2-Amino-6-chloro-4-nitrophenol, HC Red 3)
T2 construct: purchased Eurofins Cerep (SafetyScreen44-based IPP panel)
T2 sequence (P03372 1-595): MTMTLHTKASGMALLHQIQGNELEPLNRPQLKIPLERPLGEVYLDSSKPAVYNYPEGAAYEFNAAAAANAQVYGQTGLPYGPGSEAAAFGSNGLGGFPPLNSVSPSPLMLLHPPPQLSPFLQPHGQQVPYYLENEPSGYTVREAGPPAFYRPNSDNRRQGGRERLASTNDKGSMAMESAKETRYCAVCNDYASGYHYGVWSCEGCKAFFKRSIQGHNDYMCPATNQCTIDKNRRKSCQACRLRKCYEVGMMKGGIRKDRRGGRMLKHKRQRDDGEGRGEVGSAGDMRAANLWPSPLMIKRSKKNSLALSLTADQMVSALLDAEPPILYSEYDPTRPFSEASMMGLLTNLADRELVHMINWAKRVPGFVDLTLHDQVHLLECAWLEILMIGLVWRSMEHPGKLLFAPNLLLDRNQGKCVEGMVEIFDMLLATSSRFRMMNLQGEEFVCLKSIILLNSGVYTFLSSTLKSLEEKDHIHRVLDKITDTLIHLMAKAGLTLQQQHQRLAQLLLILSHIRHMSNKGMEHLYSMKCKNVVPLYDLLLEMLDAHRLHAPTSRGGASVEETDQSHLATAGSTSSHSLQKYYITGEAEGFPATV

[14] = PBK level L2; per chemical see Peff Reference; ref [3],[4],[11]; cited from earlier work
rat = settings: ref [2], cited from earlier work
[15] = target: T2, Estrogen receptor, ER1 (h); experiment: IPP ER1 coactivator recruitment (agonist); type: biochemical; settings: 100 uM, estriol, * denotes assay interference (2-Amino-6-chloro-4-nitrophenol, HC Red 3)
[16] = target: T3, Pregnane X receptor PXR, NR1I2 (h) (Homo sapiens, UniProt O75469)
T3 sequence (O75469 1-434): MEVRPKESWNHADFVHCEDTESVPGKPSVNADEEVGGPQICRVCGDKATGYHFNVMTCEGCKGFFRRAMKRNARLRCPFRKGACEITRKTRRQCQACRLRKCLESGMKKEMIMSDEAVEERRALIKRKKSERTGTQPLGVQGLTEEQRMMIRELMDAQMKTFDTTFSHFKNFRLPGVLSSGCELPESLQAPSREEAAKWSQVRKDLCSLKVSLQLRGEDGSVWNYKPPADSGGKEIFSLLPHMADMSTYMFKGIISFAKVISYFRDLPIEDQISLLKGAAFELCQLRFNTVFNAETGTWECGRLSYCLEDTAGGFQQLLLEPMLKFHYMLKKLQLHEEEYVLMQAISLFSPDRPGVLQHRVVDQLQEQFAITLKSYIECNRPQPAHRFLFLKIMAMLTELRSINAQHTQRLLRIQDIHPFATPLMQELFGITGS

[17] = target: T4, Constitutive androstane receptor CAR, NR1I3 (h) (Homo sapiens, UniProt Q14994); type: biochemical
T4 sequence (Q14994 1-352): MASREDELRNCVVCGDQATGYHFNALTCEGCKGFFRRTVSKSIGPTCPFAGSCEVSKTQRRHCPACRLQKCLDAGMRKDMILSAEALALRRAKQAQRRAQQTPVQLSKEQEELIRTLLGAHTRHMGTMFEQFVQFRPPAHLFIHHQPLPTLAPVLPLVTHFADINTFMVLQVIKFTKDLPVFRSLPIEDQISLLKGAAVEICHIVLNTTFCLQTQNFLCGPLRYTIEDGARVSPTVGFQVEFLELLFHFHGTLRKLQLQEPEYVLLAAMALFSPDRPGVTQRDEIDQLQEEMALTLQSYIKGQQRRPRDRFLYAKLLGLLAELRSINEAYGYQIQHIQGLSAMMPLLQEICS

[18] = target: Potassium voltage-gated channel subfamily H member 2 hERG, KCNH2 (h) (Homo sapiens, UniProt Q12809); settings: human, 100 µM
[19] = target: T5, Progesterone receptor, PGR (h) (Homo sapiens, UniProt P06401); experiment: biochemical; type: biochemical
T5 sequence (P06401 1-933): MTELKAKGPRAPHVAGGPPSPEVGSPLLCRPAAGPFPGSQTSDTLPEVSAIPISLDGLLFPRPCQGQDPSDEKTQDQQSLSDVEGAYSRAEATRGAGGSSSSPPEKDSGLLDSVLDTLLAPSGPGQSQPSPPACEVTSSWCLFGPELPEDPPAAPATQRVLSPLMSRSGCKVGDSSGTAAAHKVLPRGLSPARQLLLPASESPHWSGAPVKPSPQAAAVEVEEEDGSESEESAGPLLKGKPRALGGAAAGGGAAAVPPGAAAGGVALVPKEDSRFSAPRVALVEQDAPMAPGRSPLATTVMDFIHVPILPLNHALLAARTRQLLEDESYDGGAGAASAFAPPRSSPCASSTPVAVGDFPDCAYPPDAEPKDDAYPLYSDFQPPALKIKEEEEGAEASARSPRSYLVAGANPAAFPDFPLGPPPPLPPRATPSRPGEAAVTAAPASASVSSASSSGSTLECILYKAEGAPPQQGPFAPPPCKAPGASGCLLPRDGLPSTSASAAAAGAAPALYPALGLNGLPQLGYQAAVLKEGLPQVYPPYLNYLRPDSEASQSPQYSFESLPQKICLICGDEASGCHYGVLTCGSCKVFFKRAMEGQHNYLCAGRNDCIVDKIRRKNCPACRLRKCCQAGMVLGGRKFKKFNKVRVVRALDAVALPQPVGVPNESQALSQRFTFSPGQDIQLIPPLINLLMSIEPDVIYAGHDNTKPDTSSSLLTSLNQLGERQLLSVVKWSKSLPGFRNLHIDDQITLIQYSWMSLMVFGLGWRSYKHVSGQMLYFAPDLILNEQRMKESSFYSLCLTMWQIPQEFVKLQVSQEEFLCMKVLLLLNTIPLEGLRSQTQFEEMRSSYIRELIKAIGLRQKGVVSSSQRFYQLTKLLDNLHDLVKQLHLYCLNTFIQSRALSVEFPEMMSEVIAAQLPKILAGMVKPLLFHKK

[20] = Oral 50 mg (IR: Capsule), fasted, calibration, ref Huttner et al. 2018
[21] = human, Oral 100 mg, Fasted, validation, ref Huttner et al., Journal of Antimicrobial Chemotherapy (2018) 74(6): 1656-1661
[22] = IPP screening at 100 uM, control CGS 19755
[23] = 100 uM, * denotes assay interference (2-Amino-6-chloro-4-nitrophenol, HC Red 3)
[24] = 100 uM, ligand/control Colchicine

T1 sequence (P29274 whole entry): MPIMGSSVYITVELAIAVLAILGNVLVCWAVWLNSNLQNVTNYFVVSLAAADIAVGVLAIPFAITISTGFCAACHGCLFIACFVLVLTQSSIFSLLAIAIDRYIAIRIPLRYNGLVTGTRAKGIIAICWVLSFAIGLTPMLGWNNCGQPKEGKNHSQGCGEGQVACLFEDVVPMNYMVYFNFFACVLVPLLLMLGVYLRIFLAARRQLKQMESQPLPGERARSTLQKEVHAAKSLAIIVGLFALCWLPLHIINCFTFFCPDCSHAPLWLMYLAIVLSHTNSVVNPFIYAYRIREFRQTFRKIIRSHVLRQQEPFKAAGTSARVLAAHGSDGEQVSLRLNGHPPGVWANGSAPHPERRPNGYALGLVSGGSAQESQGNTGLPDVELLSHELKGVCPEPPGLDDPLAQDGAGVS
Voltage-dependent L-type Ca2+ channel (dihydropyridine site), CACNA1C (r), sequence (P22002 whole entry): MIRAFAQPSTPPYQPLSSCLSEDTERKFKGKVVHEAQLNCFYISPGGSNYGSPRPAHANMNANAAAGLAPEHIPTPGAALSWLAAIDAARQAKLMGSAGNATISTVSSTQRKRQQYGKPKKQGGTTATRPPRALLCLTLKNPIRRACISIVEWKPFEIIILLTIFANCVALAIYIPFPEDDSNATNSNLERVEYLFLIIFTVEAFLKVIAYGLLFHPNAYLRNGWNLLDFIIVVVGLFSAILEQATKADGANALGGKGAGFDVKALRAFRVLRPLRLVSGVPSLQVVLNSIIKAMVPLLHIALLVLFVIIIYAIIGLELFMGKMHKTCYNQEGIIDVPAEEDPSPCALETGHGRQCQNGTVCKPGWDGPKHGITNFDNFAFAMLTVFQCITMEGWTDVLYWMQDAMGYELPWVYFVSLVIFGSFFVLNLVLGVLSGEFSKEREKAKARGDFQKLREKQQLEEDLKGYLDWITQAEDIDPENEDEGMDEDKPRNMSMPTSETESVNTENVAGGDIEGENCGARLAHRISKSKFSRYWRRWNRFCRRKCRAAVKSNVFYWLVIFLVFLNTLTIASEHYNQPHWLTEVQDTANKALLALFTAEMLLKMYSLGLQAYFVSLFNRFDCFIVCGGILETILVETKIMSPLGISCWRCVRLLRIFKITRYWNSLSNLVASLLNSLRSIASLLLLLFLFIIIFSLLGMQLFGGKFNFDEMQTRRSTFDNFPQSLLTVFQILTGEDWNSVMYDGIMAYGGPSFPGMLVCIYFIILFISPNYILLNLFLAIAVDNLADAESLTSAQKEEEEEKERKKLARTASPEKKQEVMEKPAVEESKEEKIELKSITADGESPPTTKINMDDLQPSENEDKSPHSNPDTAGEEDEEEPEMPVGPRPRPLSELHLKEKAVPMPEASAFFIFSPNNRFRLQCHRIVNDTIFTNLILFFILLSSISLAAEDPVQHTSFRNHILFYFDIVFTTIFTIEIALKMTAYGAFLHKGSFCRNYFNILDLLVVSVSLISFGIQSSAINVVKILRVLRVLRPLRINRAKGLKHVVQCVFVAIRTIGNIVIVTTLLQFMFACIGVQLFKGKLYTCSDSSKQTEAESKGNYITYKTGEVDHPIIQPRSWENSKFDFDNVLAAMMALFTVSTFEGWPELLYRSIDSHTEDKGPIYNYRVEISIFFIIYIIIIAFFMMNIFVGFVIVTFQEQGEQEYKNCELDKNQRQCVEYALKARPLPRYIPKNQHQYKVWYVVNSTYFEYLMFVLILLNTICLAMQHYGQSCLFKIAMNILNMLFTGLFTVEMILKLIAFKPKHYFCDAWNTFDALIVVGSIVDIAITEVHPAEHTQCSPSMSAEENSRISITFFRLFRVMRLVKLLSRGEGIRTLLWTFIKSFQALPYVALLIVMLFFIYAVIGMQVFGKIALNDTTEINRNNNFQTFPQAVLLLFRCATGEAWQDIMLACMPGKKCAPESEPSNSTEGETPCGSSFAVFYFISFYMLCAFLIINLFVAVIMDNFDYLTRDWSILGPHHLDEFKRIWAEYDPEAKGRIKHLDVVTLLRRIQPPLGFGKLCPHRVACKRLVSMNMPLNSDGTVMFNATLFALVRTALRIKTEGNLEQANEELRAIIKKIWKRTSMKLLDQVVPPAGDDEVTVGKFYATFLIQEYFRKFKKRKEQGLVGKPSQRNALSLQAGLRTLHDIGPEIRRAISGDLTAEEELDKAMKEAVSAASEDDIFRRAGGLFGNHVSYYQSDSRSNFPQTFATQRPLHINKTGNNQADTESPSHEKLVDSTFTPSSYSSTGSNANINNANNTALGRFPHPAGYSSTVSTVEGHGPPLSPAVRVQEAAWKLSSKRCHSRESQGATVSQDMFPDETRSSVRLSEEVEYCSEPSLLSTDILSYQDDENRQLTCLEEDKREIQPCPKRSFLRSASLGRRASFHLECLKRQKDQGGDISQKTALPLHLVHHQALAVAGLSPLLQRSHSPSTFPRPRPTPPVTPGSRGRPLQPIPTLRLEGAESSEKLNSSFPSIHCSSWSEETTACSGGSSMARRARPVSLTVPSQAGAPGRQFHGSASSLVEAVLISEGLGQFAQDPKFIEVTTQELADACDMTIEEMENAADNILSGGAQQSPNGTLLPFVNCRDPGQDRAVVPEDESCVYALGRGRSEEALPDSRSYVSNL
Potassium voltage-gated channel subfamily H member 2 hERG, KCNH2 (h), sequence (Q12809 whole entry): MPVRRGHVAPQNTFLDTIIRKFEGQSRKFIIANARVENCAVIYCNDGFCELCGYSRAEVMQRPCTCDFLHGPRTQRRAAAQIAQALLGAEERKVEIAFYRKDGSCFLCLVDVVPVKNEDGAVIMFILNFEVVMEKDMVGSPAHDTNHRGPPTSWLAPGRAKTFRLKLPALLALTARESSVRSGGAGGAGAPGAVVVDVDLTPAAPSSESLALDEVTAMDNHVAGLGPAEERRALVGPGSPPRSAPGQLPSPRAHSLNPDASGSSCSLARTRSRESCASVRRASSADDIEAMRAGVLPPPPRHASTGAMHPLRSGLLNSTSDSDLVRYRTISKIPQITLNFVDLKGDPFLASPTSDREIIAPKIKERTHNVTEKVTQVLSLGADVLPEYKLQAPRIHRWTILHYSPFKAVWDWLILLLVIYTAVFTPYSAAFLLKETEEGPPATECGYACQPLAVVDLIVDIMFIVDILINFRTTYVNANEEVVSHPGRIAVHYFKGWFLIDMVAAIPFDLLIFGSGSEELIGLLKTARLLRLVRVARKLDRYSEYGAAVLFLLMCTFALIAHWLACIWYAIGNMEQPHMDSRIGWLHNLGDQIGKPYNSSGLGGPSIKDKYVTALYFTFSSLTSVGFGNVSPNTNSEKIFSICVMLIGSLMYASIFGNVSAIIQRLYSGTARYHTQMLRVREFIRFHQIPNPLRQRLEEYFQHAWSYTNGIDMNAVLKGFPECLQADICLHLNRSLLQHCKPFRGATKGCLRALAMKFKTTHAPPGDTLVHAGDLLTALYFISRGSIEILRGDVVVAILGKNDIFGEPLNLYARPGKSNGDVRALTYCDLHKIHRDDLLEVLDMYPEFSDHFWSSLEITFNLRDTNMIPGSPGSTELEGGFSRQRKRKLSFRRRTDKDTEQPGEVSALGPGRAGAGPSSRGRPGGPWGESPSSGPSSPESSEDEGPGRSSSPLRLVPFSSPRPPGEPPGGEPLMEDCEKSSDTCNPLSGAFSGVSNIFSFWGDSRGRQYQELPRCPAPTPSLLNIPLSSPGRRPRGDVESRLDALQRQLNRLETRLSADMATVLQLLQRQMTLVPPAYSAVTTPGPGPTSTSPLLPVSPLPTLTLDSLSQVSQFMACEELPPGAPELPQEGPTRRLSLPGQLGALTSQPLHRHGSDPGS

Structure (SMILES)	pod_httr_bifrost PoD (HepaRG cells)	podl_path_minbmd PoD (HepaRG cells)	Specific binding [2]	pod_cell_stress PoD (HepG2 cells [3])	risk [5]	pod_httr_bifrost PoD (HepG2 cells [7])	podl_path_minbmd PoD (HepG2 cells [7])	pod_httr_bifrost PoD (MCF7 cells)	podl_path_minbmd PoD (MCF7 cells)	Specific binding [11]	Specific binding [1, 22]	Specific binding ([4]; IPP screening at 100 uM)	IPP screening %, Coactivator recruitment [10, 23]	IPP screening %, Specific binding (Tubulin (r); [24])	also measured
O=C1CN(N=Cc2ccc([N+](=O)[O-])o2)C(=O)N1 [Nitrofurantoin, 1-{[(5-Nitrofuran-2-yl)methylidene]amino}imidazolidine-2,4-dione]	0.1863 µM	2.332 µM	4.4%	0.5175 µM	1	0.5233 µM	2.98 µM	0.3553 µM	7.519 µM	7.2%	–	–	–	–	Specific binding [1]: -2.8%; Specific binding ([4]; IPP screening at 10 uM): 37.8%; Reported AUC0-t [6, 20]: 3040 to 6400 ng·h/mL; Reported cmax [6, 20]: 0.21 to 0.45 mg/L; Reported tmax [6, 20]: 30 to 300 min; Reported AUC0-t [6, 21]: 940 to 10970 ng·h/mL; Reported cmax [6, 21]: 0.22 to 1.26 mg/L; Reported tmax [6, 21]: 30 to 300 min; Specific binding ([8]; IPP screening at 10 uM, control α-dendrotoxin): -14.6%; Specific binding [9]: -6.9%; IPP screening %, Coactivator recruitment ([10]; 10 uM): 0.0%; PoD (NOAEL) (mouse; in vivo): 60 mg/kg bw/day; IPP screening %, Specific binding (Tubulin (r)): 7.0%
Nc1cc([N+](=O)[O-])cc(Cl)c1O [2-Amino-6-chloro-4-nitrophenol]	1.518 µM	35.7772 µM	–	0.2197 µM	0	0.8029 µM	158.096 µM	0.4471 µM	9.316 µM	–	21.2%	3.6%	41.0* %	5.0%	Specific binding ([2]; IPP screening at 100 uM, control veratridine): 31.5%; AC50 [12]: 1530 nM; IPP screening %, Coactivator recruitment [13]: -9.0* %; Peff [14]: 7.96 cm/s x E-04; NOAEL (rat; 90-day rat study, increased liver weights): 10 mg/kg bw/day; dose up to which no maternal or fetal effects were observed (rat; reproductive and developmental toxicity rat study): 90 mg/kg bw/day; IPP screening %, Coactivator recruitment [15]: 6.0* %; IPP Dose Response PoD: PXR antagonist [16]: [37.1,80.3]; Specific binding ([8]; IPP screening at 100 uM, control α-dendrotoxin): 13.7%; IPP Dose Response PoD: CAR antagonist effect [17]: [40.9,86.1]; IPP screening %, Specific binding [18]: 10.7%; Specific binding ([11]; IPP screening at 100 uM, control diazepam): 14.3%
O=P1(N(CCCl)CCCl)NCCCO1 (stereo not shown) [Cyclophosphamide, 2-[Bis(2-chloroethyl)amino]-1,3,2lambda~5~-oxazaphosphinan-2-one]	7.071 µM	31.838 µM	12.4%	3.329 µM	1	118.124 µM	783.625 µM	0.08892 µM	210.107 µM	19.4%	6.8%	15.0%	-1.0%	-4.0%	EC50 [19]: > 300000 nM; Specific binding [8]: 17.5%; PoD (NOAEL) (mouse; 42 days, developmental neurotox study, ref ToxRefDB/Paul-Friedman et al. (2020)/regulatory opinions): 45 mg/kg bw/day
